Format in all cases: biochemical
One experiment concerns the target T1, c-KIT V654A kinase (Homo sapiens, UniProt P10721, V654A).
T1 construct: residues T544-V976 with N-terminal GST fusion; purchased deCODE Biostructures
As to the kind of experiment: c-KIT V654A Kinase Assay. Particulars: enzymatic assay, ATP 200 µM. The method, boiled down:
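Construct: cKIT residues T544–V976 with N-terminal tag, GST fusion and TEV site. Reaction started by adding serially diluted compound to the enzyme mixture; NADH oxidation, coupled to kinase turnover, followed as the decrease in A340 for 6 h at 30 °C.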

The next experiment addresses T2, c-KIT D816H kinase (Homo sapiens, UniProt P10721, D816H).
T2 construct: The construct contains residues T544-V976 of cKit; GST (N); TEV cleavage site (internal); purchased deCODE Biostructures
As to the kind of experiment: c-KIT D816H Kinase Assay. The note with it: enzymatic assay, ATP 200 µM. The gist of the method: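 Coupled spectrophotometric assay following NADH oxidation as absorbance decrease at 340 nm, monitored continuously for 6 hours at 30 °C after adding serially diluted compound. Enzyme: mutant cKit construct with N-terminal tag, GST fusion and TEV cleavage site.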

The next experiment deals with T3, c-KIT D816V kinase (Homo sapiens, UniProt P10721, D816V).
T3 construct: residues T544-V976 with N-terminal GST fusion; purchased deCODE Biostructures
As to the kind of experiment: c-KIT D816V kinase Assay. Particulars: enzymatic assay, ATP 200 uM. The gist of the method: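 Coupled assay in which NADH oxidation was tracked as decreasing absorbance at 340 nm, continuously for 5 hours at 30 °C after adding serially diluted compound. Enzyme: cKit residues T544-V976 with N-terminal tag, GST fusion and TEV cleavage site.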

For a further experiment, the target named is T4, c-KIT VVDV kinase (Homo sapiens, UniProt P10721, D816V/DEL559-560).
T4 construct: This construct contains residues T544-V976 of cKit; GST (N); TEV cleavage site (internal); purchased deCODE Biostructures
As to the kind of experiment: cKIT-VVDV kinase Assay. The note with it: enzymatic assay; V559+V560 deletions and D816V mutation. The method, boiled down: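 Coupled spectrophotometric format: kinase activity followed as NADH oxidation, loss of absorbance at 340 nm. Serially diluted compound mixed with the reaction mixture to start; read continuously for 5 h at 30 °C.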

For the next experiment, the target named is T5, c-KIT T670I kinase (Homo sapiens, UniProt P10721, T670I).
T5 construct: The construct contains residues T544-V976 of cKit; GST (N); TEV cleavage site (internal); purchased deCODE Biostructures
The experiment in a line: c-KIT T670I kinase assay. Particulars: enzymatic assay. The method, boiled down:
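Coupled spectrophotometric assay following NADH oxidation as absorbance decrease at 340 nm, monitored continuously for 5 h at 30 °C after adding serially diluted compound. Enzyme is a cKit construct with N-terminal tag, GST fusion and TEV site, carrying the T670I mutation.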

Molecules are shown by their SMILES.

T5 sequence (P10721 544-976 T670I): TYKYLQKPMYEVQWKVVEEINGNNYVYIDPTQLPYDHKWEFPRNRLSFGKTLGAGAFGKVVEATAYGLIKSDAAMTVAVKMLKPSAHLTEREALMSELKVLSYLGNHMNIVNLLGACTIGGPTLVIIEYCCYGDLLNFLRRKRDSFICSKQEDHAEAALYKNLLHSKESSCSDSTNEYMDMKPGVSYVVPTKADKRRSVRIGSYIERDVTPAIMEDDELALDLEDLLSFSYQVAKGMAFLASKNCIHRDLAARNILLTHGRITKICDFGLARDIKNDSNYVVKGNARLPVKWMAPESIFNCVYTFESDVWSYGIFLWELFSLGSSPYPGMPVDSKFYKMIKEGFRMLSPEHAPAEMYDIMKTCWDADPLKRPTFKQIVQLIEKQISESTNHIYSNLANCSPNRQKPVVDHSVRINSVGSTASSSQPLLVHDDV
T2 sequence (P10721 544-976 D816H): as the sequence (P10721 544-976 T670I) above, with I127T, D273H counted along it
T1 sequence (P10721 544-976 V654A): as the sequence (P10721 544-976 T670I) above, with V111A, I127T counted along it
T4 sequence (P10721 with tags, fused parts or gaps DEL559-560/D816V): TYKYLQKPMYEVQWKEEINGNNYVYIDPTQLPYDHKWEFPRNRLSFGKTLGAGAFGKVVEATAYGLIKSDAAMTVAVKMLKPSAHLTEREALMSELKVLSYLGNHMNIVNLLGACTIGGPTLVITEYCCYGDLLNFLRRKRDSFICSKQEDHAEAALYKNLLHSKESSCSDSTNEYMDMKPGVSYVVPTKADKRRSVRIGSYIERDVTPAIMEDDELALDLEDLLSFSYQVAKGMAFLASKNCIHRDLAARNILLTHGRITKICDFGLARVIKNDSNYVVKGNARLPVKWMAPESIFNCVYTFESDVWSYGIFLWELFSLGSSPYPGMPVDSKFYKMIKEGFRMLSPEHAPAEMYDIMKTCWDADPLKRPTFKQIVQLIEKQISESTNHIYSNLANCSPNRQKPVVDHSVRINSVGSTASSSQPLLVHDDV
T3 sequence (P10721 544-976 D816V): as the sequence (P10721 544-976 T670I) above, with I127T, D273V counted along it

In general, IC50 refers to the midpoint of a concentration-inhibition curve. Turning to `CCn1c(=O)c(-c2cc(NC(=O)Nc3cc(F)cc(F)c3)c(F)cc2Cl)cc2cnc(NC)cc21` [Example 55, 1-(4-chloro-5-(1-ethyl-7-(methylamino)-2-oxo-1,2-dihydro-1,6-naphthyridin-3-yl)-2-fluorophenyl)-3-(3,5-difluorophenyl)urea], the IC50 on c-KIT V654A kinase was 10 to 100 nM; on c-KIT D816H kinase, < 10 nM; on c-KIT D816V kinase it was 10 to 100 nM; at c-KIT VVDV kinase, 10 to 100 nM; at c-KIT T670I kinase, 10 to 100 nM.
As to `CCn1c(=O)c(-c2cc(NC(=O)Nc3ccccc3F)c(F)cc2Cl)cc2cnc(NC)cc21` [Example 25, 1-[4-chloro-5-(1-ethyl-7-methylamino-2-oxo-1,2-dihydro-[1,6]naphthyridin-3-yl)-2-fluoro-phenyl]-3-(2-fluoro-phenyl)-urea], the IC50 was < 10 nM on c-KIT V654A kinase; 10 to 100 nM on c-KIT D816H kinase; 10 to 100 nM on c-KIT D816V kinase; < 10 nM at c-KIT VVDV kinase; < 10 nM at c-KIT T670I kinase.
As to `CCn1c(=O)c(-c2cc(NC(=O)Nc3cc(F)cc(F)c3)c(F)cc2C)cc2cnc(NC)cc21` [Example 60, 1-(3,5-difluorophenyl)-3-(5-(1-ethyl-7-(methylamino)-2-oxo-1,2-dihydro-1,6-naphthyridin-3-yl)-2-fluoro-4-methylphenyl)urea], the concentration for half-maximal inhibition (IC50) on c-KIT V654A kinase was 10 to 100 nM; at c-KIT D816H kinase it was 10 to 100 nM; on c-KIT D816V kinase, 10 to 100 nM; on c-KIT VVDV kinase it was 10 to 100 nM; at c-KIT T670I kinase, 100 to 1000 nM.
Consider `CCn1c(=O)c(-c2cc(NC(=O)Nc3cc(F)ccc3F)c(F)cc2C)cc2cnc(NC)cc21` [Example 61, 1-(2,5-difluorophenyl)-3-(5-(1-ethyl-7-(methylamino)-2-oxo-1,2-dihydro-1,6-naphthyridin-3-yl)-2-fluoro-4-methylphenyl)urea], for which the IC50 on c-KIT V654A kinase was 10 to 100 nM; at c-KIT D816H kinase it was 100 to 1000 nM; at c-KIT D816V kinase, 10 to 100 nM; on c-KIT VVDV kinase, < 10 nM; at c-KIT T670I kinase, < 10 nM.
As for `CCn1c(=O)c(-c2cc(NC(=O)Nc3ccc(F)c(CN4CCN(C)CC4)c3)c(F)cc2Cl)cc2cnc(NC)cc21` [Example 87, 1-(4-chloro-5-(1-ethyl-7-(methylamino)-2-oxo-1,2-dihydro-1,6-naphthyridin-3-yl)-2-fluorophenyl)-3-(4-fluoro-3-((4-methylpiperazin-1-yl)methyl)phenyl)urea], the IC50 on c-KIT V654A kinase was 100 to 1000 nM; at c-KIT D816H kinase, 10 to 100 nM; on c-KIT D816V kinase, 100 to 1000 nM; at c-KIT T670I kinase, 10 to 100 nM.
In the case of `CCn1c(=O)c(-c2cc(NC(=O)Nc3cccc(F)c3F)c(F)cc2Cl)cc2cnc(NC)cc21` [Example 4, 1-(4-chloro-5-(1-ethyl-7-(methylamino)-2-oxo-1,2-dihydro-1,6-naphthyridin-3-yl)-2-fluorophenyl)-3-(2,3-difluorophenyl)urea], the 50% inhibitory concentration (IC50) on c-KIT V654A kinase is < 10 nM; at c-KIT D816H kinase it was < 10 nM; on c-KIT D816V kinase it was 10 to 100 nM; on c-KIT VVDV kinase, < 10 nM; on c-KIT T670I kinase it was 10 to 100 nM.
As for `CNc1cc2c(cn1)cc(-c1cc(NC(=O)Nc3cccc(F)c3)c(F)cc1Cl)c(=O)n2C(C)C` [Example 77, 1-(4-chloro-2-fluoro-5-(1-isopropyl-7-(methylamino)-2-oxo-1,2-dihydro-1,6-naphthyridin-3-yl)phenyl)-3-(3-fluorophenyl)urea], the half-maximal inhibitory concentration (IC50) on c-KIT V654A kinase is 10 to 100 nM; on c-KIT D816H kinase, 10 to 100 nM; on c-KIT D816V kinase, < 10 nM; at c-KIT T670I kinase, 100 to 1000 nM.
In the case of `CCn1c(=O)c(-c2cc(NC(=O)Nc3ccccc3)c(F)cc2Cl)cc2cnc(NC(=O)OC)cc21` [Example 73, methyl (3-(2-chloro-4-fluoro-5-(3-phenylureido)phenyl)-1-ethyl-2-oxo-1,2-dihydro-1,6-naphthyridin-7-yl)carbamate], the half-inhibitory concentration (IC50) on c-KIT V654A kinase is 10 to 100 nM; at c-KIT D816H kinase, 10 to 100 nM; on c-KIT D816V kinase, < 10 nM; on c-KIT VVDV kinase it was < 10 nM; at c-KIT T670I kinase it was 10 to 100 nM.
For `CCn1c(=O)c(-c2cc(NC(=O)Nc3ccccc3)c(F)cc2C)cc2cnc(NC(=O)N(C)C)cc21` [Example 101, 3-(1-ethyl-3-(4-fluoro-2-methyl-5-(3-phenylureido)phenyl)-2-oxo-1,2-dihydro-1,6-naphthyridin-7-yl)-1,1-dimethylurea], the IC50 at c-KIT V654A kinase, on c-KIT D816H kinase, at c-KIT D816V kinase and at c-KIT T670I kinase was 10 to 100 nM each time.
Turning to `CCn1c(=O)c(-c2cc(NC(=O)Nc3cccc(F)c3)c(F)cc2C)cc2cnc(N)cc21` [Example 58, 1-(5-(7-amino-1-ethyl-2-oxo-1,2-dihydro-1,6-naphthyridin-3-yl)-2-fluoro-4-methylphenyl)-3-(3-fluorophenyl)urea], the IC50 at c-KIT V654A kinase is < 10 nM; on c-KIT D816H kinase, < 10 nM; at c-KIT D816V kinase, 10 to 100 nM; at c-KIT T670I kinase it was 10 to 100 nM.
In the case of `CCn1c(=O)c(-c2cc(NC(=O)Nc3ccccc3)c(F)cc2Cl)cc2cnc(NC(=O)N3CC(O)C3)cc21` [Example 81, N-(3-(2-chloro-4-fluoro-5-(3-phenylureido)phenyl)-1-ethyl-2-oxo-1,2-dihydro-1,6-naphthyridin-7-yl)-3-hydroxyazetidine-1-carboxamide], the IC50 on c-KIT V654A kinase is 10 to 100 nM; at c-KIT D816H kinase it was < 10 nM; at c-KIT D816V kinase, 10 to 100 nM; at c-KIT T670I kinase it was 10 to 100 nM.
On to `CCn1c(=O)c(-c2cc(NC(=O)Nc3ccccc3)c(F)cc2Cl)cc2cnc(NCCOC)cc21` [Example 27, 1-(4-chloro-5-(1-ethyl-7-(2-methoxyethylamino)-2-oxo-1,2-dihydro-1,6-naphthyridin-3-yl)-2-fluorophenyl)-3-phenylurea], for which the IC50 at c-KIT V654A kinase, at c-KIT D816H kinase, at c-KIT D816V kinase, on c-KIT VVDV kinase and on c-KIT T670I kinase was 10 to 100 nM in each case.
Consider `CCn1c(=O)c(-c2cc(NC(=O)Nc3ccccc3)c(F)cc2Cl)cc2cnc(NC(=O)N3CC(N(C)C)C3)cc21` [Example 102, N-(3-(2-chloro-4-fluoro-5-(3-phenylureido)phenyl)-1-ethyl-2-oxo-1,2-dihydro-1,6-naphthyridin-7-yl)-3-(dimethylamino)azetidine-1-carboxamide], for which the IC50 on c-KIT V654A kinase, on c-KIT D816H kinase, at c-KIT D816V kinase and on c-KIT T670I kinase was 10 to 100 nM throughout.
As for `CCn1c(=O)c(-c2cc(NC(=O)Nc3cc(F)cc(F)c3)c(F)cc2Cl)cc2cnc(NC(C)=O)cc21` [Example 67, N-(3-(2-chloro-5-(3-(3,5-difluorophenyl)ureido)-4-fluorophenyl)-1-ethyl-2-oxo-1,2-dihydro-1,6-naphthyridin-7-yl)acetamide], the half-inhibitory concentration (IC50) on c-KIT V654A kinase was 10 to 100 nM; at c-KIT D816H kinase, < 10 nM; at c-KIT D816V kinase it was < 10 nM; at c-KIT T670I kinase, < 10 nM.
For the compound `CCn1c(=O)c(-c2cc(NC(=O)Nc3ccccc3)c(F)cc2Br)cc2cnc(NCCOC)cc21` [Example 51, 1-(4-bromo-5-(1-ethyl-7-(2-methoxyethylamino)-2-oxo-1,2-dihydro-1,6-naphthyridin-3-yl)-2-fluorophenyl)-3-phenylurea], the IC50 at c-KIT V654A kinase is 10 to 100 nM; on c-KIT D816V kinase, 100 to 1000 nM; at c-KIT VVDV kinase, 100 to 1000 nM; on c-KIT T670I kinase it was > 1000 nM.

The values are drawn from EP3722296B1, “DIHYDRONAPHTHYRIDINES AND RELATED COMPOUNDS USEFUL AS KINASE INHIBITORS FOR THE TREATMENT OF PROLIFERATIVE DISEASES” (Deciphera Pharmaceuticals, LLC, priority 2012, dated 2013).
